Experiment in all cases: Competitive isoTOP-ABPP, cell lysates
What all share (assay type): binding

For one assay, the target named is T1, UBE2S C118 (Q16763) (Homo sapiens, UniProt Q16763).
T1 sequence (Q16763 1-222): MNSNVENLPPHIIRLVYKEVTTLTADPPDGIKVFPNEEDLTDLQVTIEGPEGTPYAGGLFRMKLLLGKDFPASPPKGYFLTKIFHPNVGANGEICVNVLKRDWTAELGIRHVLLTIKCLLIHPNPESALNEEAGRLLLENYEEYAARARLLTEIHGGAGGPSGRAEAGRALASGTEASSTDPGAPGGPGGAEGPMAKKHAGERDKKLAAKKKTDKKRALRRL

Another assay addresses T2, IRF4 C194 (Q15306) (Homo sapiens, UniProt Q15306).
T2 sequence (Q15306 1-451): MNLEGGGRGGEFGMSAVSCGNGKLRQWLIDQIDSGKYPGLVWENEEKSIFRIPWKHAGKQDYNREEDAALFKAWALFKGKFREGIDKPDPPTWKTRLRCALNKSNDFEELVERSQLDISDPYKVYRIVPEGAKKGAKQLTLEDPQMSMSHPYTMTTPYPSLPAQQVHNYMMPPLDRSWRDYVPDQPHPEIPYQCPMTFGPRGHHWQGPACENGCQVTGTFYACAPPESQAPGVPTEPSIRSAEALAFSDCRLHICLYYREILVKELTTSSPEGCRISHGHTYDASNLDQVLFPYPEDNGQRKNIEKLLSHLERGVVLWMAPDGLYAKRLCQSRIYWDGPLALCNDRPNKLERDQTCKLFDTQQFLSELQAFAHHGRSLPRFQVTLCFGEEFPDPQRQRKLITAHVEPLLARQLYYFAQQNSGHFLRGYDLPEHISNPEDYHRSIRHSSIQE
The settings on record: 500 μM, invitro, ramos.

A further assay addresses T3, IDH2 C308 (P48735) (Homo sapiens, UniProt P48735).
T3 sequence (P48735 40-452): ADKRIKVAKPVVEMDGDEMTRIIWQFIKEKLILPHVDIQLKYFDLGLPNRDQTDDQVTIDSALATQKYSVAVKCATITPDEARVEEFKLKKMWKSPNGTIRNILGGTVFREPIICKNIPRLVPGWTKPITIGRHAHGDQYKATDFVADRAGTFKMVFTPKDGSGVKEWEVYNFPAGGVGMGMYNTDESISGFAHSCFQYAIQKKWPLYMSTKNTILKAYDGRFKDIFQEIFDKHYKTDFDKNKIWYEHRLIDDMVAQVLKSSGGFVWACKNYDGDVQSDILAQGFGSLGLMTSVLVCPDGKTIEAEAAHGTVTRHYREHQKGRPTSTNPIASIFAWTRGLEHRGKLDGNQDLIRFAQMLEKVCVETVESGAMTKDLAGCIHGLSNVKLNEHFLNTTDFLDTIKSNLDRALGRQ
The settings on record: for R value (DMSO/fragment): in vitro, MDA-MB-231; for isoTOP-ABPP ratio, P48735_C308: invitro, 231.

The target in the next assay is T4, ACAT1 C119 (P24752) (Homo sapiens, UniProt P24752).
T4 sequence (P24752 34-427): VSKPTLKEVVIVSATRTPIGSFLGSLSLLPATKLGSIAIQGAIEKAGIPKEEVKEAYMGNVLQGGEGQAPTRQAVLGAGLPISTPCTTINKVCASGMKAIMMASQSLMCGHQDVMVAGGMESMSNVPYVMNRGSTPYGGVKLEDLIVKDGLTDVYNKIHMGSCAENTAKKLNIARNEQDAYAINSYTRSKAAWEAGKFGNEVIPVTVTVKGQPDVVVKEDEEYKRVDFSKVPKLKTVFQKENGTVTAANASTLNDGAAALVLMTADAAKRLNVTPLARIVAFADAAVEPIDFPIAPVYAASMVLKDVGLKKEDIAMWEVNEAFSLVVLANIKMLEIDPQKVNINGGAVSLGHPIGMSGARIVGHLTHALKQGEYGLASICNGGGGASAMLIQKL

For the next assay, the target named is T5, ACAT1 C126 (P24752) (Homo sapiens, UniProt P24752).
T5 sequence (P24752 34-427): T4 sequence (P24752 34-427)

Another assay has as its target T6, ACAT1 C413 (P24752) (Homo sapiens, UniProt P24752).
T6 sequence (P24752 34-427): T4 sequence (P24752 34-427)

On to `O=C(CCl)Nc1cc(C(F)(F)F)cc(C(F)(F)F)c1` [compound 3], for which the “R value (DMSO/fragment)” value at UBE2S C118 (Q16763) (500 μM, in vitro, MDA-MB-231) is reported as 1.3; at UBE2S C118 (Q16763) (500 μM, invitro, ramos), 1.5; at IRF4 C194 (Q15306), 20.0; on IDH2 C308 (P48735) (500 μM), 2.2; at ACAT1 C119 (P24752) (500 μM, in vitro, MDA-MB-231), 2.1; at ACAT1 C119 (P24752) (500 μM, invitro, ramos), 5.3. Besides, the “R value (DMSO/fragment)” value on ACAT1 C126 (P24752) (500 μM, in vitro, MDA-MB-231) is recorded as 2.6; at ACAT1 C126 (P24752) (500 μM, invitro, ramos) it was 2.4; at ACAT1 C413 (P24752) (500 μM, in vitro, MDA-MB-231), 15.3; on ACAT1 C413 (P24752) (500 μM, invitro, ramos) it was 20.0.

In the case of `COc1ccc(C2CC(c3cccs3)=NN2C(=O)CCl)cc1` (centres unmarked) [compound 4], the “R value (DMSO/fragment)” value at UBE2S C118 (Q16763) (250 μM, in vitro, MDA-MB-231) came out at 1.2; at IDH2 C308 (P48735) (250 μM) it was 0.7; on ACAT1 C119 (P24752) (250 μM, in vitro, MDA-MB-231), 1.8; on ACAT1 C119 (P24752) (250 μM, in vitro, Ramos), 0.2; at ACAT1 C126 (P24752) (250 μM, in vitro, MDA-MB-231), 2.1; on ACAT1 C126 (P24752) (250 μM, in vitro, Ramos), 1.2. For the same compound, at ACAT1 C413 (P24752) (250 μM, in vitro, MDA-MB-231), the “R value (DMSO/fragment)” value is 3.3.

With `C=CC(=O)N(c1ccccc1)c1ccc(Br)cc1` [compound 5], the “isoTOP-ABPP ratio, Q16763_C118” value at UBE2S C118 (Q16763) (500 μM, invitro, 231) turned out to be 2.8. Besides, the “isoTOP-ABPP ratio, Q15306_C194” value at IRF4 C194 (Q15306) is 2.2. In addition, the “isoTOP-ABPP ratio, P48735_C308” value at IDH2 C308 (P48735) (500 μM) is listed as 0.8. The “isoTOP-ABPP ratio P24752_C119” value on ACAT1 C119 (P24752) (500 μM, invitro, 231) was determined as 1.8; on ACAT1 C119 (P24752) (500 μM, invitro, ramos), 2.4. In addition, the “isoTOP-ABPP ratio, P24752_C126” value at ACAT1 C126 (P24752) (500 μM, invitro, 231) stood at 0.9; at ACAT1 C126 (P24752) (500 μM, invitro, ramos) it was 1.3. The “isoTOP-ABPP ratio P24752_C413” value on ACAT1 C413 (P24752) (500 μM, invitro, 231) came out at 1.3.

For `O=C(CCl)N1CCN(S(=O)(=O)c2ccccc2F)CC1` [compound 10], the “isoTOP-ABPP ratio, Q16763_C118” value at UBE2S C118 (Q16763) (500 μM, invitro, 231) came to 1.7. Also, the “isoTOP-ABPP ratio, Q15306_C194” value at IRF4 C194 (Q15306) came out at 2.5. Besides, the “isoTOP-ABPP ratio, P48735_C308” value at IDH2 C308 (P48735) (500 μM) is given as 1.1. In addition, the “isoTOP-ABPP ratio P24752_C119” value at ACAT1 C119 (P24752) (500 μM, invitro, 231) turned out to be 1.5; on ACAT1 C119 (P24752) (500 μM, invitro, ramos), 1.4. Further, the “isoTOP-ABPP ratio, P24752_C126” value was determined as 3.2 on ACAT1 C126 (P24752) (500 μM, invitro, 231) and 1.5 at ACAT1 C126 (P24752) (500 μM, invitro, ramos). For the same compound, the “isoTOP-ABPP ratio P24752_C413” value on ACAT1 C413 (P24752) (500 μM, invitro, 231) was 13.0; on ACAT1 C413 (P24752) (500 μM, invitro, ramos), 1.6.

With `Cn1cc(S(=O)(=O)N2CCOCC2)cc1C(=O)NC(=O)CCl` [compound 11], the “isoTOP-ABPP ratio, Q15306_C194” value at IRF4 C194 (Q15306) is 4.3. The “isoTOP-ABPP ratio, P48735_C308” value on IDH2 C308 (P48735) (500 μM) turned out to be 1.1. Moreover, the “isoTOP-ABPP ratio P24752_C119” value came to 1.2 on ACAT1 C119 (P24752) (500 μM, invitro, 231) and 0.9 on ACAT1 C119 (P24752) (500 μM, invitro, ramos). Besides, the “isoTOP-ABPP ratio, P24752_C126” value at ACAT1 C126 (P24752) (500 μM, invitro, 231) stood at 1.5. For the same compound, the “isoTOP-ABPP ratio P24752_C413” value on ACAT1 C413 (P24752) (500 μM, invitro, 231) was found to be 1.9; at ACAT1 C413 (P24752) (500 μM, invitro, ramos), 1.7.

For the compound `O=C(CCl)NC(=O)NC12CC3CC(CC(C3)C1)C2` [compound 12], the “isoTOP-ABPP ratio, Q16763_C118” value on UBE2S C118 (Q16763) (500 μM, invitro, ramos) came out at 0.6. The “isoTOP-ABPP ratio, Q15306_C194” value on IRF4 C194 (Q15306) worked out at 3.7. At IDH2 C308 (P48735) (500 μM), the “isoTOP-ABPP ratio, P48735_C308” value is on record as 1.7. Further, the “isoTOP-ABPP ratio P24752_C119” value was 1.0 on ACAT1 C119 (P24752) (500 μM, invitro, 231) and 0.7 on ACAT1 C119 (P24752) (500 μM, invitro, ramos). Also, the “isoTOP-ABPP ratio, P24752_C126” value is recorded as 1.0 at ACAT1 C126 (P24752) (500 μM, invitro, 231) and 1.1 on ACAT1 C126 (P24752) (500 μM, invitro, ramos). The “isoTOP-ABPP ratio P24752_C413” value on ACAT1 C413 (P24752) (500 μM, invitro, 231) was 1.5; at ACAT1 C413 (P24752) (500 μM, invitro, ramos) it was 1.1.

Consider `O=C(CCl)NCCc1c[nH]c2ccccc12` [compound 13], for which the “isoTOP-ABPP ratio, Q16763_C118” value at UBE2S C118 (Q16763) (500 μM, invitro, ramos) was 0.7. Further, on IRF4 C194 (Q15306), the “isoTOP-ABPP ratio, Q15306_C194” value is given as 1.1. In addition, the “isoTOP-ABPP ratio, P48735_C308” value on IDH2 C308 (P48735) (500 μM) was determined as 1.1. In addition, the “isoTOP-ABPP ratio P24752_C119” value at ACAT1 C119 (P24752) (500 μM, invitro, 231) is 1.2; on ACAT1 C119 (P24752) (500 μM, invitro, ramos) it was 0.6. The “isoTOP-ABPP ratio, P24752_C126” value on ACAT1 C126 (P24752) (500 μM, invitro, 231) is listed as 9.6; at ACAT1 C126 (P24752) (500 μM, invitro, ramos), 20.0. Besides, the “isoTOP-ABPP ratio P24752_C413” value on ACAT1 C413 (P24752) (500 μM, invitro, 231) is 5.5; at ACAT1 C413 (P24752) (500 μM, invitro, ramos) it was 7.3.

(Values after patent US10670605B2, “Cysteine reactive probes and uses thereof” (The Scripps Research Institute, priority 2015, dated 2020).)
